Experimental data reported in paper PMC12051030, “Identification of inhibitors of the Salmonella FraB deglycase, a drug target” (FEBS Open Bio, 2025).
Where two headings read alike, the source gives them in different places.

Biological target: His6‐FraB (Salmonella FraB deglycase) (Salmonella enterica subsp. enterica serovar Typhimurium, UniProt Q8ZLD0)
Test: FraB-G6PD coupled assay, Michaelis–Menten analysis for K I and mode of inhibition
Assay type: biochemical
Conditions: for change of IC50 values with increasing [S]/K m: 'this trend' = IC50 does not vary with [S]/K m, change evident only from 0.2 to 1.6× [S]/K m; for slope in plots of 1/IC50 vs. v o/V max: Fig. S12; for K IU/K IC ratio: average (±SE), from 1/IC50 versus v o/V max plots; for mode of inhibition: kinetic analyses (Lineweaver‐Burk, α′ vs [I], IC50 vs [S]/K m, 1/IC50 vs v o/V max)
Experimental: To determine the K I of each inhibitor, 29 μL of master mix was added to two rows of a 384‐well Greiner plate, using a single‐channel pipette, and incubated at 20 °C for 20 min. A 12‐channel pipette was then used to transfer and mix 1 μL of varying [6‐P‐F‐Asp] to all 48 wells. The final reaction (30 μL) consisted of 25 mM HEPES pH 8.0 at 20 °C, 5 mM MgCl2, 0.1 mM EGTA, 0.5 mM NAD^+, 1 mU G6PD, 100 nM His6‐FraB, varying (6‐P‐F‐Asp) (between 8 and 12 concentrations), and varying [inhibitor] (between three and five concentrations) in 10% (v/v) DMSO. NADH fluorescence was monitored every 10 s for 10 min total on a SPARK® multi‐mode multiplate reader (Tecan), as described above, and plotted against time. Slopes of the linear range of each curve were converted to initial velocities, as described above, that were then plotted against [6‐P‐F‐Asp]. A hyperbolic curve was then fitted to the data to obtain the k cat and K m values according to the formula: v o = (V max × [S])/(K m + [S]).
To determine the correlation between the observed and expected initial velocities (Fig. S5A), these values were exported from Kaleidagraph, plotted against one another, and a curve was fit using the formula: y = mx + b. The differences between observed and expected initial velocities (residuals) were then depicted as box‐and‐whisker plots (Fig. S5B). Lineweaver‐Burk plots were generated by graphing 1/v o versus 1/[S] and curves were fit to the data with Kaleidagraph using the formula: 1/v o = (Km/V max).(1/[S]) + (1/V max). The k cat and K m parameters were then converted into α′ values by dividing the k cat of the control (no inhibitor) by either itself (α′= 1) or the k cat of test samples with variable [inhibitor]. Those α′ values were plotted against [inhibitor] and K I values were determined from the equation α = 1 + [I]/K I.
The initial velocities used to generate the Michaelis–Menten plots were also employed to obtain the IC50 vs [S]/K m plots. For a given [S], initial velocities were converted into relative activities and plotted versus [inhibitor]. […] The IC50 values determined from the IC50 vs [S]/K m plots were then used to plot 1/IC50 versus v o/V max. A curve was fit to the data using the formula: y = mx + b. The Y‐intercept of the 1/IC50 versus v o/V max plot is equal to 1/K IC, and the slope, for mixed inhibitors, is equal to 1/K IU – 1/K IC. […] Data analyses were performed as described above (see Tables S1–S7 for curve‐fit errors and goodness‐of‐fit values).

[1] = Trial 1, 6-P-F-Asp 7.38 µM, S/Km 0.175714, unit from Fig. S11 axis, read-out: IC50 (IC50 versus [S]/Km plots)
[2] = Trial 1, 6-P-F-Asp 15.7 µM, S/Km 0.37381, unit from Fig. S11 axis, read-out: IC50 (IC50 versus [S]/Km plots)
[3] = Trial 1, 6-P-F-Asp 31.3 µM, S/Km 0.745238, unit from Fig. S11 axis, read-out: IC50 (IC50 versus [S]/Km plots)
[4] = Trial 1, 6-P-F-Asp 62.5 µM, S/Km 1.488095, unit from Fig. S11 axis, read-out: IC50 (IC50 versus [S]/Km plots)
[5] = Trial 1, 6-P-F-Asp 125 µM, S/Km 2.97619, unit from Fig. S11 axis, read-out: IC50 (IC50 versus [S]/Km plots)
[6] = Trial 1, 6-P-F-Asp 250 µM, S/Km 5.952381, unit from Fig. S11 axis, read-out: IC50 (IC50 versus [S]/Km plots)
[7] = Trial 1, 6-P-F-Asp 500 µM, S/Km 11.90476, unit from Fig. S11 axis, read-out: IC50 (IC50 versus [S]/Km plots)
[8] = Trial 1, 6-P-F-Asp 750 µM, S/Km 17.85714, unit from Fig. S11 axis, read-out: IC50 (IC50 versus [S]/Km plots)
[9] = Trial 1, 6-P-F-Asp 1000 µM, S/Km 23.80952, unit from Fig. S11 axis, read-out: IC50 (IC50 versus [S]/Km plots)
[10] = Trial 1, 6-P-F-Asp 2000 µM, S/Km 47.61905, unit from Fig. S11 axis, read-out: IC50 (IC50 versus [S]/Km plots)
[11] = Trial 1, 6-P-F-Asp 3000 µM, S/Km 71.42857, unit from Fig. S11 axis, read-out: IC50 (IC50 versus [S]/Km plots)
[12] = Trial 2, 6-P-F-Asp 7.38 µM, S/Km 0.175714, unit from Fig. S11 axis, read-out: IC50 (IC50 versus [S]/Km plots)
[13] = Trial 2, 6-P-F-Asp 15.7 µM, S/Km 0.37381, unit from Fig. S11 axis, read-out: IC50 (IC50 versus [S]/Km plots)
[14] = Trial 2, 6-P-F-Asp 31.3 µM, S/Km 0.745238, unit from Fig. S11 axis, read-out: IC50 (IC50 versus [S]/Km plots)
[15] = Trial 2, 6-P-F-Asp 62.5 µM, S/Km 1.488095, unit from Fig. S11 axis, read-out: IC50 (IC50 versus [S]/Km plots)
[16] = Trial 2, 6-P-F-Asp 125 µM, S/Km 2.97619, unit from Fig. S11 axis, read-out: IC50 (IC50 versus [S]/Km plots)
[17] = Trial 2, 6-P-F-Asp 250 µM, S/Km 5.952381, unit from Fig. S11 axis, read-out: IC50 (IC50 versus [S]/Km plots)
[18] = Trial 2, 6-P-F-Asp 500 µM, S/Km 11.90476, unit from Fig. S11 axis, read-out: IC50 (IC50 versus [S]/Km plots)
[19] = Trial 2, 6-P-F-Asp 750 µM, S/Km 17.85714, unit from Fig. S11 axis, read-out: IC50 (IC50 versus [S]/Km plots)
[20] = Trial 2, 6-P-F-Asp 1000 µM, S/Km 23.80952, unit from Fig. S11 axis, read-out: IC50 (IC50 versus [S]/Km plots)
[21] = Trial 2, 6-P-F-Asp 2000 µM, S/Km 47.61905, unit from Fig. S11 axis, read-out: IC50 (IC50 versus [S]/Km plots)
[22] = Trial 2, 6-P-F-Asp 3000 µM, S/Km 71.42857, unit from Fig. S11 axis, read-out: IC50 (IC50 versus [S]/Km plots)
[23] = from Michaelis–Menten analysis of FraB at different inhibitor concentrations, average and standard error from two measurements, read-out: K I

His6‐FraB (Salmonella FraB deglycase), sequence (Q8ZLD0 entry or part of it): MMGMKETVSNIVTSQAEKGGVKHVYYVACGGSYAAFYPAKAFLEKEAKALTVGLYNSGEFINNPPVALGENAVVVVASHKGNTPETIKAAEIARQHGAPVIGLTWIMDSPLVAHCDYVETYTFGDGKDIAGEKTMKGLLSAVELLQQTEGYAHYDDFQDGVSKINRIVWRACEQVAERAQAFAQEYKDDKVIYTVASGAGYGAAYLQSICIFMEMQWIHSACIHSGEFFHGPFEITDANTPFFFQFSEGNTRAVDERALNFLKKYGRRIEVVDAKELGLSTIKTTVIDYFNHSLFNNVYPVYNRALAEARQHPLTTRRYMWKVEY

Compound	change of IC50 values with increasing [S]/K m	slope in plots of 1/IC50 vs. v o/V max	IC50 [1]	IC50 [2]	IC50 [3]	IC50 [4]	IC50 [5]	IC50 [6]	IC50 [7]	IC50 [8]	IC50 [9]	IC50 [10]	IC50 [11]	IC50 [12]	IC50 [13]	IC50 [14]	IC50 [15]	IC50 [16]	IC50 [17]	IC50 [18]	further results
Cc1cccc(Cl)c1-n1sc(=O)n(CC2CC2)c1=O [1524:E12, 2‐(2‐chloro‐6‐methylphenyl)‐4‐(cyclopropylmethyl)‐1,2,4‐thiadiazolidine‐3,5‐dione]	exhibit this trend	no	5.182 µM	4.4596 µM	6.2505 µM	5.0417 µM	4.4301 µM	4.497 µM	4.5819 µM	4.2959 µM	4.7019 µM	4.852 µM	5.5036 µM	4.2249 µM	5.1146 µM	4.8438 µM	5.1187 µM	5.0178 µM	5.2509 µM	4.9663 µM	IC50 [19]: 4.9173 µM; IC50 [20]: 5.0782 µM; IC50 [21]: 5.2035 µM; IC50 [22]: 5.7824 µM; K IU/K IC ratio: 0.95 ± 0.05; Ki [23]: 4 µM; mode of inhibition: pure noncompetitive inhibitors; IC50, mean and standard deviation of all IC50 values in IC50 vs [S]/Km plot (trial shown in Fig. S11 panels M-X): 5 ± 0.4 µM; IC50, mean and standard deviation of all IC50 values in IC50 vs [S]/Km plot (trial shown in Fig. S11 panels Y-AJ): 5 ± 0.6 µM
O=c1sn(-c2ccccc2C(F)(F)F)c(=O)n1CC1CC1 [1524:G12, 4‐(cyclopropylmethyl)‐2‐[2‐(trifluoromethyl)phenyl]‐1,2,4‐thiadiazolidine‐3,5‐dione]	exhibit this trend	no	1.08 µM	1.39 µM	1.54 µM	1.44 µM	1.55 µM	1.47 µM	1.59 µM	1.51 µM	1.36 µM	1.44 µM	1.65 µM	1.91 µM	1.49 µM	1.54 µM	1.64 µM	1.36 µM	1.27 µM	1.41 µM	IC50 [19]: 1.42 µM; IC50 [20]: 1.44 µM; IC50 [21]: 1.37 µM; IC50 [22]: 1.66 µM; K IU/K IC ratio: 0.9 ± 0.1; Ki [23]: 1 µM; mode of inhibition: pure noncompetitive inhibitors
O=c1[nH][nH]c(=S)n1Cc1ccccc1 [1533:K12, 4‐benzyl‐5‐sulfanylidene‐1,2,4‐triazolidin‐3‐one]	modest decrease	weakly positive	26.2 µM	24.1 µM	18.5 µM	18.3 µM	18.1 µM	19.6 µM	18.7 µM	20.1 µM	16.7 µM	18.6 µM	21.2 µM	24.9 µM	24.7 µM	26.5 µM	25.9 µM	24 µM	23.8 µM	21.8 µM	IC50 [19]: 20.5 µM; IC50 [20]: 21.1 µM; IC50 [21]: 20.8 µM; IC50 [22]: 20.7 µM; K IU/K IC ratio: 0.75 ± 0.05; Ki [23]: 12 ± 1 µM; Ki (independent trial shown in Fig. S11 panels A-L, read-out: KI from α′ vs [I] plot): 13 µM; mode of inhibition: mixed‐type uncompetitive; IC50 (single trial shown in Fig. 5, read-out: IC50, mean and standard deviation of all IC50 values in IC50 vs [S]/Km plot): 23 ± 2 µM; Ki (single trial shown in Fig. 5, read-out: KI from α′ vs [I] plot): 11 µM
